The values that follow are results of earlier work, collected in patent publication US20070213270A1, “PEPTIDE YY FORMULATIONS HAVING INCREASED STABILITY AND RESISTANCE TO MICROBIAL AGENTS” (priority 2004, published 2007).

For data set [1] the following is noted: aqueous solution at physiologic pH.

With “2-alkyl-4-hydroxyquinolines [pyo compound]”, in the data set on ciliary motility, the “concentration producing ciliostasis / inhibiting ciliary motility” value is 50 µg/mL.
For the molecule `CC(C)CC(N)B(O)O` (centres unmarked) [boro-leucine], in the data set with aminopeptidases, the “effectiveness in enzyme inhibition relative to bestatin” value is on record as “more than 100 times” and the “effectiveness in enzyme inhibition relative to puromycin” value is “more than 1000 times”.
Consider `CCN(CC)/[N+]([O-])=N/O.CCNCC` [diethylamine/NO], for which, in data set [1], the “rate of NO release” value is below 3 min.
For the molecule `NCCN(CCN)/[N+]([O-])=N/O` [diethylenetriamine/NO (DETANO), diethylenetriamine/NO], the “rate of NO release” value in data set [1] is on record as “approximately 20 hours”.
